Assay results: US11844801B2, “Oral compositions of MK2 pathway inhibitor for treatment of immune conditions” (priority 2020, dated 2023)
Like-named read-outs stand apart in the source and are kept apart here.

Assays:
[1] = system: p-HSP27 (phosphorylated heat shock protein 27); assay: Ex vivo LPS-stimulated p-HSP27 in blood of dosed healthy subjects, PK/PD inhibitory Emax model; set-up: species or system human
Method: Blood samples of 10 mL were collected for PD analysis. For the SAD cohorts, blood was collected before dosing and 1, 12, and 24 hours after dosing. For the MAD cohorts, on day 1 blood was collected before the morning dose and 4 and 12 hours after the morning dose (prior to the evening dose); on day 7, blood was collected before the morning dose and 4 and 12 hours after the morning dose.
Additional details of the assays for analyzing p-HSP27 and cytokines are included in the Supplementary Information.
Pharmacodynamics. PD data analysis was conducted using Microsoft Excel 2010 (Microsoft, Redmond, WA), Meso Scale Discovery Workbench® analysis software (Rockville, MD), and Phoenix WinNonlin, version 8.2.
Sample Preparation for p-HSP27 Analysis. […] Treatment groups consisted of 3 tubes for group ‘A’, 2 tubes for group ‘B’, and 1 tube for group ‘C’.
Dimethyl sulfoxide (DMSO) was added to all tubes in groups ‘A’ and ‘C’ to a final concentration of 0.1% (10 μL per mL of a 10% DMSO solution in Dulbecco's Modified Eagle Medium (DMEM) containing 10% fetal bovine serum (FBS) and 1% penicillin/streptomycin/glutamine). Samples were then rocked gently at room temperature. […] Samples were then rocked gently at room temperature for a minimum of 1 hour.
Samples in groups ‘A’ and ‘B’ were stimulated with lipopolysaccharide at a final concentration of 100 ng/mL for 22 minutes at room temperature. A stock solution of lipopolysaccharide at 1 mg/mL in DMEM containing 10% FBS and 1% penicillin/streptomycin was diluted to 10 μg/mL in DMEM containing 10% FBS and 1% penicillin/streptomycin, and 10 μL of this working solution was added per mL of blood. Samples were gently rocked at room temperature for 11 minutes, then placed upright for 11 minutes prior to peripheral blood mononuclear cells (PBMC) isolation.
Ten μL of DMEM containing 10% FBS only was added per mL of blood in group ‘C’ for all patient samples (unstimulated samples). Samples were gently rocked at room temperature for 11 minutes, then placed upright for 11 minutes prior to PBMC isolation.
Upon completion of treatment (lipopolysaccharide stimulated or unstimulated) for each sample, PBMCs were isolated from each human whole blood aliquot in all treatment groups. One mL of blood from each sample was gently layered onto 0.75 mL of Histopaque-1077 in a 2-mL microcentrifuge tube. Histopaque-1077 was maintained at room temperature. The samples were centrifuged for 2 minutes at 16,000×g in an Eppendorf microcentrifuge. The interface and upper layers were removed and added to tubes containing 1 mL cold Dulbecco's phosphate-buffered saline (DPBS). These samples were then centrifuged for 30 seconds at 16,000×g in an Eppendorf microcentrifuge to pellet the cells. The buffer supernatant was removed by aspiration and the pellets were re-suspended in 1 mL of cold DPBS. The pellets from each sample were then re-pelleted, as described above. […]
Analysis of p-HSP27 (Ser78) Levels Using Luminex Technology. The lysates were analyzed for HSP27 phosphorylation with a custom Milliplex® MAP Human Phospho-HSP27(Ser78) Cell Signaling Magnetic Bead Kit from Millipore Sigma (Burlington, MA) using the kit-prescribed immunoassay protocol for a 96-well solid plate and hand-held magnetic separation block. […]

IL-6 = assay: Rat whole blood LPS stimulated IL-6; type: cell-based; conditions: 100 ng/mL, 4 hr
[2] = 13-week oral administration non-clinical safety study, rat; type: in vivo; conditions: for Cmax / AUC(0-t): 30 mg/kg/day oral; for AUC(0-t): read-out: AUC0-24
Method: Study Design. […] Rats were administered 0 (vehicle), 3, 10 and 30 mg/kg/day, and Mini-pigs were administered 0 (vehicle) 10, 30 and 60 mg/kg/day

[3] = Phase 1 SAD/MAD safety and tolerability in healthy subjects (incl. 80/120 mg BID extension)
Method: Single ascending dose (SAD) cohorts.
Multiple ascending dose (MAD) cohorts. […] Subjects were admitted to the clinical facility on day −1 and remained at the site until 72 hours after the morning dose on day 7.
Safety and Tolerability Assessments. Adverse events, clinical laboratory tests, vital signs, an electrocardiogram, Holter monitoring, and physical examination results were evaluated for each subject in both parts of the study.
Methods: Safety, pharmacokinetics (PK) and pharmacodynamics (PD) were assessed in two cohorts of subjects in a randomized, observer-blind, placebo-controlled study in male and female healthy subjects aged 18-55 (n=77). The study consisted of twenty (20) subjects enrolled into 2 cohorts. […] The final dose was administered in the morning on Day 7. Blood samples were obtained Day 1—before dosing, Day 1—4 hours after dosing and Day 1—12 hours after dosing and Day 7—before dosing, Day 7—4 hours after dosing, day 7—12 hour after dosing and Day 7—24 hours after dosing for each subject.

[4] = female, rat, in vivo, study day 88, females
[5] = male, rat, in vivo, study day 88, males
[6] = all ATI-450 SAD and MAD cohorts, 3/48
[7] = all ATI-450 SAD and MAD cohorts, n = 48

SMILES: Cc1cnc(-c2ccnc(C(C)(C)O)n2)cc1-n1c(C)cc(OCc2ncc(F)cc2F)c(Cl)c1=O (single isomer, unassigned) [ATI-450, 3-chloro-4-((3,5-difluoropyridin-2-yl)methoxy)-2′-(2-(2-hydroxypropan-2-yl)pyrimidin-4-yl)-5′,6-dimethyl-2H-[1,4′-bipyridin]-2-one]
- Cmax (Multiple of IC80) ([1]; 50 mg BID, day 7): 6.0x
- Ctrough (Multiple of IC80) ([1]; 50 mg BID, day 7): 2.4x
- IC80 ([1]; Homo sapiens, calculated from IC50, combined SAD and MAD data, read-out: IC80, plasma concentration at 80% of maximal inhibition): 0.0367 µg/mL
- IC50 ([1]; Homo sapiens, inhibitory Emax model, combined SAD and MAD data, read-out: IC50, plasma concentration at half maximal inhibition): 0.0092 µg/mL
- IC80, plasma concentration at 80% of maximal inhibition ([1]; calculated from IC50, combined SAD and MAD data): 0.0367 µg/mL
- IC50 (IL-6): 0.0283 ± 0.0012 µM
- non adverse finding, myocytes ([2]; 13-week oral): Minimal to moderate degeneration of myocytes at all doses, including control animals
- mortality ([2]; 13-week oral, up to 30 mg/kg/day): No study drug-related mortality was observed
- recovery of rat non adverse findings ([2]; after 13-week dosing): complete recovery following 28-day non-dosing period
- Cmax [2, 4]: 5440 ng/mL
- AUC(0-t) [2, 4]: 43500 ng·h/mL
- Cmax [2, 5]: 3260 ng/mL
- AUC(0-t) [2, 5]: 36400 ng·h/mL
- NOAEL at 13 weeks ([2]; rat, in vivo, 13-week oral, read-out: no-observed adverse effect level (NOAEL)): 30 mg/kg/day
- non adverse finding, nasal area ([2]; several animals at mid and high dose): minimal ulceration/mixed cell inflammation
- subjects with TEAEs considered related to the study drug ([3]; 10 mg BID cohort, 1 of 8): 13%
- subjects with TEAEs considered related to the study drug ([3]; 30 mg BID cohort, 5 of 8): 63%
- subjects with TEAEs considered related to the study drug ([3]; 50 mg BID cohort, 3 of 8): 38%
- neutrophils ([3]; 50 mg BID, day 7 (baseline 3318.4 cells/μL)): 2514.4 cells/μL
- mean reduction in neutrophils ([3]; 50 mg BID, day 7 vs baseline): 24%
- Constipation, AE, n (%) ([3]; 80 mg BID, 7 days, n = 8): 1 (14%)
- Dizziness, AE, n (%) ([3]; 80 mg BID, 7 days, n = 8): 2 (25%)
- Headache, AE, n (%) ([3]; 80 mg BID, 7 days, n = 8): 2 (25%)
- Xerosis, AE, n (%) ([3]; 80 mg BID, 7 days, n = 8): 1 (13%)
- tolerability ([3]; 80 mg and 120 mg BID, 7 days): well tolerated with no severe adverse effects reported
- Abdominal Pain, AE, n (%) ([3]; 120 mg BID, 7 days, n = 8): 1 (13%)
- Dizziness, AE, n (%) ([3]; 120 mg BID, 7 days, n = 8): 6 (75%)
- Headache, AE, n (%) ([3]; 120 mg BID, 7 days, n = 8): 7 (88%)
- Loose stools, AE, n (%) ([3]; 120 mg BID, 7 days, n = 8): 1 (13%)
- Nausea, AE, n (%) ([3]; 120 mg BID, 7 days, n = 8): 2 (25%)
- Parasthesia, AE, n (%) ([3]; 120 mg BID, 7 days, n = 8): 2 (25%)
- Pharyngitis, AE, n (%) ([3]; 120 mg BID, 7 days, n = 8): 1 (13%)
- Xerosis, AE, n (%) ([3]; 120 mg BID, 7 days, n = 8): 5 (63%)
- neutrophils, laboratory change ([3]; MAD cohort, maximum effect Day 2 to Day 5): dose dependent reduction in neutrophils
- character of TEAEs ([3]; MAD cohorts 10-50 mg BID): mild, transient, and resolved without sequelae
- deaths, serious adverse events ([3]; MAD cohorts 10-50 mg BID): no deaths or SAEs
- subjects with TEAEs considered related to the study drug ([3]; MAD cohorts 10-50 mg BID, 9 of 24): 38%
- subjects reporting TEAEs ([3]; MAD cohorts 10-50 mg BID, 12 of 24): 50%
- vital signs, electrocardiograms, clinical laboratory values ([3]; SAD and MAD cohorts): No clinically significant findings
- character of TEAEs ([3]; SAD cohorts): mild, transient, and resolved without sequelae
- deaths, serious adverse events, discontinuations ([3]; SAD cohorts): No deaths or serious adverse events (SAEs)
- subjects with TEAEs considered related to the study drug ([3]; SAD cohorts, 4 of 24): 17%
- subjects reporting TEAEs ([3]; SAD cohorts, 7 of 24): 29%
- constipation, subjects with adverse event [3, 6]: 6.3%
- upper respiratory tract infection, subjects with adverse event [3, 6]: 6.3%
- dizziness, subjects with adverse event ([3]; all ATI-450 SAD and MAD cohorts, 6/48): 12.5%
- Abdominal pain, treatment-emergent adverse event, n subjects [3, 7]: 2
- Constipation, treatment-emergent adverse event, n subjects [3, 7]: 3
- Dizziness, treatment-emergent adverse event, n subjects [3, 7]: 6
- Headache, treatment-emergent adverse event, n subjects [3, 7]: 10
- Nausea, treatment-emergent adverse event, n subjects [3, 7]: 2
- Upper respiratory tract infection, treatment-emergent adverse event, n subjects [3, 7]: 3
- Vomiting, treatment-emergent adverse event, n subjects [3, 7]: 0
- subjects with TEAEs considered related to the study drug ([3]; single dose 10 mg cohort): 0 subjects
- subjects with TEAEs considered related to the study drug ([3]; single dose 30 mg cohort): 33%
- subjects with TEAEs considered related to the study drug ([3]; single dose 50 mg cohort): 17%
- subjects with TEAEs considered related to the study drug ([3]; single dose 100 mg cohort): 1 subject
- safety and tolerability ([3]; single doses up to 100 mg, multiple doses up to 50 mg BID for 7 days): generally safe and well tolerated
